Data as given in the supplement of paper PMC10307832.

Columns and labels:
Test in all cases: relative viability (nuclei count vs DMSO), 5 days (fraction); higher = more cells survive
NCI-H647 = system: NCI-H647
Summary of the method: (§1)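 Medians of duplicate plates are given as relative viability. That measure is the nuclei count in treated wells divided by the count in vehicle wells. Counts were taken on 4× images of lung cancer cell lines in 1536-well plates, 5 days after pin-tool dosing the day after seeding with one drug alone or a fixed anchor-drug dose plus five library-drug doses (not always all listed) in √10 steps.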

NCI-H358 = system: NCI-H358
Summary of the method: as §1

NCI-H2347 = system: NCI-H2347
Summary of the method: as §1

SW 1573 = system: SW 1573
Summary of the method: as §1

HCC-15 = system: HCC-15
Summary of the method: as §1

NCI-H460 = system: NCI-H460
Summary of the method: as §1

NCI-H1755 = system: NCI-H1755
Summary of the method: as §1

NCI-H2126 = system: NCI-H2126
Summary of the method: as §1

NCI-H2342 = system: NCI-H2342
Summary of the method: as §1

A-427 = system: A-427
Summary of the method: as §1

HOP-62 = system: HOP-62
Summary of the method: as §1

NCI-H2228 = system: NCI-H2228
Summary of the method: as §1

COc1cc(N2CCC(C(N)=O)CC2)ccc1Nc1nc(N)c(Cl)c(Nc2ccccc2S(=O)(=O)C(C)C)n1 [HG-5-88-01] + Cc1nc(Nc2ncc(C(=O)Nc3c(C)cccc3Cl)s2)cc(N2CCN(CCO)CC2)n1 [Dasatinib] (partner 0.075 µM)
relative viability (NCI-H647; first compound 0.04 µM): 0.162 | relative viability (NCI-H647; first compound 0.1265 µM): 0.216 | relative viability (NCI-H647; first compound 0.4 µM): 0.114 | relative viability (NCI-H647; first compound 1.265 µM): 0.0855 | relative viability (NCI-H647; first compound 4 µM): 0.112 | relative viability (NCI-H358; first compound 0.04 µM): 0.142 | relative viability (NCI-H358; first compound 0.1265 µM): 0.153 | relative viability (NCI-H358; first compound 0.4 µM): 0.164 | relative viability (NCI-H358; first compound 1.265 µM): 0.11 | relative viability (NCI-H358; first compound 4 µM): 0.138 | relative viability (NCI-H2347; first compound 0.04 µM): 0.267 | relative viability (NCI-H2347; first compound 0.1265 µM): 0.319 | relative viability (NCI-H2347; first compound 0.4 µM): 0.318 | relative viability (NCI-H2347; first compound 1.265 µM): 0.303 | relative viability (NCI-H2347; first compound 4 µM): 0.295 | relative viability (SW 1573; first compound 0.04 µM): 0.425 | relative viability (SW 1573; first compound 0.1265 µM): 0.426 | relative viability (SW 1573; first compound 0.4 µM): 0.353 | relative viability (SW 1573; first compound 1.265 µM): 0.279 | relative viability (SW 1573; first compound 4 µM): 0.266 | relative viability (HCC-15; first compound 0.04 µM): 0.669 | relative viability (HCC-15; first compound 0.1265 µM): 0.59 | relative viability (HCC-15; first compound 0.4 µM): 0.416 | relative viability (HCC-15; first compound 1.265 µM): 0.397 | relative viability (HCC-15; first compound 4 µM): 0.347 | relative viability (NCI-H460; first compound 0.04 µM): 0.481 | relative viability (NCI-H460; first compound 0.1265 µM): 0.56 | relative viability (NCI-H460; first compound 0.4 µM): 0.316 | relative viability (NCI-H460; first compound 1.265 µM): 0.255 | relative viability (NCI-H460; first compound 4 µM): 0.0831 | relative viability (NCI-H1755; first compound 0.04 µM): 0.459 | relative viability (NCI-H1755; first compound 0.1265 µM): 0.514 | relative viability (NCI-H1755; first compound 0.4 µM): 0.369 | relative viability (NCI-H1755; first compound 1.265 µM): 0.29 | relative viability (NCI-H1755; first compound 4 µM): 0.15 | relative viability (NCI-H2126; first compound 0.04 µM): 0.617 | relative viability (NCI-H2126; first compound 0.1265 µM): 0.565 | relative viability (NCI-H2126; first compound 0.4 µM): 0.449 | relative viability (NCI-H2126; first compound 1.265 µM): 0.34 | relative viability (NCI-H2126; first compound 4 µM): 0.259 | relative viability (NCI-H2342; first compound 0.04 µM): 0.281 | relative viability (NCI-H2342; first compound 0.1265 µM): 0.336 | relative viability (NCI-H2342; first compound 0.4 µM): 0.308 | relative viability (NCI-H2342; first compound 1.265 µM): 0.307 | relative viability (NCI-H2342; first compound 4 µM): 0.268 | relative viability (A-427; first compound 0.04 µM): 0.77 | relative viability (A-427; first compound 0.1265 µM): 0.686 | relative viability (A-427; first compound 0.4 µM): 0.676 | relative viability (A-427; first compound 1.265 µM): 0.746 | relative viability (A-427; first compound 4 µM): 0.431 | relative viability (HOP-62; first compound 0.04 µM): 0.682 | relative viability (HOP-62; first compound 0.1265 µM): 0.606 | relative viability (HOP-62; first compound 0.4 µM): 0.487 | relative viability (HOP-62; first compound 1.265 µM): 0.444 | relative viability (HOP-62; first compound 4 µM): 0.253 | relative viability (NCI-H2228; first compound 0.04 µM): 0.106 | relative viability (NCI-H2228; first compound 0.1265 µM): 0.0974 | relative viability (NCI-H2228; first compound 0.4 µM): 0.0904 | relative viability (NCI-H2228; first compound 1.265 µM): 0.101
